Experimental data as given in PubChem BioAssay AID844 (SRMLSC, 2007).
The source made the active and inactive calls. No rule for the calls is given here.

System: MRP1 cells, doxorubicin viability shift, 10 uM compound
Experiment: doxorubicin EC50 increase in MRP-1 cells, dose response, cell-based, doxorubicin EC50 shift (AID 844)
Settings: for EC50: measured here: doxorubicin EC50 with compound

Structure (SMILES) | fold increase in Dox EC50 | EC50 [µM]
COc1ccc(-c2cc3nc(-c4ccccc4)cc(N4CCC5(CC4)OCCO5)n3n2)cc1 | 0.21 (inactive) | 1.16
Cc1c(NC(=O)CSc2ccc(Cl)cc2)cccc1-c1nc2ncccc2o1 | 0.99 (inactive) | 5.34
Cc1cc(N/N=C/c2ccccc2Cl)nc(NCc2ccccc2)n1 | 0.2 (inactive) | 1.08
CC(Oc1ccc(Cl)cc1Cl)C(=O)NC1CCSC1=O (stereo not given) | 1.98 | 10.7
CCN(CC)S(=O)(=O)c1cccc(NC(=O)CCSc2ccc(Cl)cc2)c1 | 0.89 (inactive) | 4.81
O=C(NCc1ccc(Cl)cc1)C(=O)NCC1OCCN1C(=O)c1cccs1 (stereo not given) | 1.33 (inactive) | 7.17
O=C1CC(N2CCC(n3c(=O)[nH]c4ccccc43)CC2)C(=O)N1c1ccc(F)cc1 (stereo not given) | 1.41 (inactive) | 7.59
CC1CCc2c(sc3nc(CSc4ncn[nH]4)[nH]c(=O)c23)C1 (stereo not given) | 0.81 (inactive) | 4.4
O=c1[nH]c(C2CCCN(S(=O)(=O)c3ccccc3)C2)nc2c1nnn2Cc1ccccc1 (stereo not given) | 0.11 (inactive) | 0.603
CN=C1S/C(=C\c2cc(C)n(-c3ccccc3F)c2C)C(=O)N1C | 0.65 (inactive) | 3.49
C=CCc1c(C)nc(-c2ccccc2)nc1N/N=C/c1ccccc1 | 0.87 (inactive) | 4.7
Cc1ccc(CN2C(=O)NC(=O)C3(Cc4c(nc5ccccn5c4=O)N4CCCCCC43)C2=O)cc1 (stereo not given) | 1.02 (inactive) | 5.51
C=CCOc1c(CNc2ccc(C(=O)O)cc2)cccc1OCC | 0.59 (inactive) | 3.21
CCc1nnc(NC(=O)c2ccc(-c3ccc(Cl)cc3)o2)s1 | 1.19 (inactive) | 6.41
COc1cc(/C=C(\C#N)c2ccccn2)ccc1OCc1ccccc1Cl | 1.1 (inactive) | 5.95
O=C(COc1ccc2oc3c(c2c1)CCCC3)Nc1ccccn1 | 1.27 (inactive) | 6.85
CC(NC(=O)c1ccc(Br)cc1)c1ccc2c(c1)CCCC2 (stereo not given) | 1.36 (inactive) | 7.33
O=C(O)CSC1c2ccccc2C(=O)N1Cc1ccccc1 (stereo not given) | 0.82 (inactive) | 4.42
Cc1noc(/C=C/N(C)C)c1S(=O)(=O)N1CCCC(C(=O)NCc2cccs2)C1 (stereo not given) | 1.32 (inactive) | 7.11
Cc1ccc(C)c(/C(O)=C2\C(=O)C(=O)N(CCCn3ccnc3)C2c2ccncc2)c1 (stereo not given) | 1.17 (inactive) | 6.31
COc1ccc(NC(=O)Cn2cc(C(=O)c3ccco3)c3ccccc32)cc1 | 0.88 (inactive) | 4.74
O=C(Nc1ccn(Cc2ccccc2F)n1)c1ccc(COc2cc(Cl)ccc2Cl)o1 | 0.91 (inactive) | 4.94
O=C(Nc1cccc([N+](=O)[O-])c1)c1[nH]ncc1Cl | 0.54 (inactive) | 2.89
Cc1ccc(OCc2nc(-c3ccc(Cl)cc3)n[nH]2)cc1 | 0.79 (inactive) | 4.24
CCOc1ccc2c(c1)c(N=O)c(O)n2C | 0.58 (inactive) | 3.14

Structure (SMILES) | fold increase in Dox EC50 | EC50 [µM]
CCc1ccc(-c2csc(NC(=O)Oc3ccccc3)n2)cc1 | 1.23 (inactive) | 6.65
CCCCCCn1c(O)c(/C=C2\C=NN=C2c2ccccc2)sc1=S | 0.77 (inactive) | 4.16
N#Cc1nc(COc2ccc(Br)cc2)oc1NCCN1CCOCC1 | 0.83 (inactive) | 4.5
CCOC(=O)C1=C(C)Nc2sc(C(=O)c3ccc(OC)cc3)c(N)c2C1c1ccc(C(=O)OC)cc1 (stereo not given) | 0.2 (inactive) | 1.09
O=C(COc1ccc(Cl)cc1)N1CCN(S(=O)(=O)c2ccccc2)CC1 | 0.68 (inactive) | 3.68
CCc1nnc(NC(=O)c2ccc(S(=O)(=O)N3CCCCCC3)cc2)s1 | 0.9 (inactive) | 4.88
COc1ccccc1CNC(=O)Cn1cc2c(n1)CCCC2 | 1.66 | 8.94
Cn1c(=O)c2c(nc(CN3CCOCC3)n2CCc2ccccc2)n(C)c1=O | 0.31 (inactive) | 1.68
CCc1nnc(NC(=O)CCC(=O)N2CCN(CCOc3ccc(C)cc3)CC2)s1 | 1.24 (inactive) | 6.7
COc1ccc(OCc2nc(C#N)c(N3CCN(c4ccc(OC)cc4)CC3)o2)cc1 | 0.76 (inactive) | 4.08
CC/C(=N\NC(=O)C(N)=O)c1ccccc1O | 0.61 (inactive) | 3.29
Cc1onc(-c2ccccc2Cl)c1C(=O)OCC(=O)Nc1ccc2c(c1)OCO2 | 1.19 (inactive) | 6.42
CNc1oc(-c2ccc(C)cc2)nc1P(=O)(c1ccccc1)c1ccccc1 | 0.95 (inactive) | 5.13
Cc1cccc(Nc2nnc(SCC(=O)Nc3cccnc3Cl)s2)c1 | 0.61 (inactive) | 3.3
CC1=C(C(=O)Nc2ccccc2C)C(c2ccc(C)o2)N2C(=O)CSC2=N1 (stereo not given) | 1.01 (inactive) | 5.43
Cc1c(OCC(=O)OC(C)(C)C)ccc2c3c(c(=O)oc12)CCC3 | 1.04 (inactive) | 5.59
CCc1nnc(NC(=O)CCC(=O)N2CCN(Cc3ccc(Cl)cc3)CC2)s1 | 0.76 (inactive) | 4.09
CC(C)(C)c1cc(Br)ccc1OCC(=O)Nc1ncn[nH]1 | 0.89 (inactive) | 4.78
COC(=O)C1=C(C)NC(C)=C(C(=O)OC)C1c1ccccc1OCc1c(C)no[n+]1[O-] | 0.98 (inactive) | 5.32
COc1ccc(N2Cc3cccc(C(=O)NC(C)CCc4ccco4)c3C2=O)cc1 (stereo not given) | 0.37 (inactive) | 2.02
O=C1NC(=Nc2ccccc2)SC1Cc1cccc(Cl)c1Cl (stereo not given) | 1.21 (inactive) | 6.54
O=C1Cc2ccccc2C(=O)N1CCc1ccccc1 | 0.44 (inactive) | 2.37
CC(C)CNC(=O)c1cccc(NC(=O)Cc2ccc(Br)cc2)c1 | 0.92 (inactive) | 4.98
COc1ccc(-c2cc(C(=O)Nc3sc4c(c3C#N)CCCC4)c3ccccc3n2)cc1 | 1.18 (inactive) | 6.37
CCCCCCC(=O)Nc1ccc(C(=O)N/N=C/c2cccnc2)cc1 | 0.13 (inactive) | 0.694

Structure (SMILES) | fold increase in Dox EC50 | EC50 [µM]
CC1=NN(C(=O)c2ccc(Cn3nc(C)c(Br)c3C)cc2)C(O)(C(F)(F)F)C1 (stereo not given) | 1.15 (inactive) | 6.18
CCOc1cc(/C=C2\SC(=Nc3ccccc3)N(c3ccccc3)C2=O)ccc1OCC(=O)O | 0.94 (inactive) | 5.09
C=CCc1c(C)nc(-c2ccccc2)nc1N/N=C(\C)c1ccccc1 | 0.43 (inactive) | 2.34
Cc1cccc(NC(=O)Cn2c(=O)n(Cc3ccco3)c(=N)c3c4c(sc32)COC(C)(C)C4)c1 | 0.81 (inactive) | 4.37
Cc1ccc2nc(NC(=O)CCNS(=O)(=O)c3cccs3)sc2c1 | 0.56 (inactive) | 3
Cc1ccsc1CNn1cnnc1SCc1ccc(Cl)cc1 | 0.78 (inactive) | 4.22
CN1/C(=C\C(=O)c2oc3ccccc3c2N)C(C)(C)c2ccccc21 | 0.7 (inactive) | 3.77
COc1ccc(N(C(=O)Cn2cnc3ccccc32)C(C(=O)NC2CCCCC2)c2ccccc2)cc1 (stereo not given) | 0.38 (inactive) | 2.07
O=C(NC(=S)Nc1ccccc1N1CCCCC1)c1ccc(-c2cccc([N+](=O)[O-])c2)o1 | 1.3 (inactive) | 7.02
Cc1cc(C(=O)COC(=O)c2ccc3c(c2)OCO3)c(C)n1Cc1cccs1 | 1.06 (inactive) | 5.7
CCc1ccc(NC(=O)Cn2c(=O)oc3cc(S(=O)(=O)N4CCOCC4)ccc32)cc1 | 1 (inactive) | 5.4
CC(/C=N/NC(=O)c1nn(C)c(C)c1Br)=C\c1ccccc1 | 1.25 (inactive) | 6.72
CC(C)CC(=O)n1sc(NC(=O)c2ccccc2)nc1=O | 0.92 (inactive) | 4.95
c1coc(C2Nc3cccc4cccc(c34)N2)c1 | 0.21 (inactive) | 1.13
Cc1ccc(NC(=O)Cc2csc(-c3ccccc3)n2)cc1F | 1.22 (inactive) | 6.6
COc1ccccc1-c1cc(C(=O)NC(C)c2ccccc2)no1 (stereo not given) | 1.04 (inactive) | 5.64
CCOC(=O)CN1C(=O)C(C)(C)Oc2ccc(C(=O)Nc3ccccc3OC)cc21 | 0.85 (inactive) | 4.6
COc1ccc(-n2ncc3c(N4CCCc5ccccc54)ncnc32)cc1 | 0.67 (inactive) | 3.62
COc1ccc(Cl)cc1C(=O)Nc1ccc2c(c1)OCO2 | 0.66 (inactive) | 3.57
N#CCSc1n[nH]c2nc3c(c(=O)n12)C1(CCCC1)Cc1ccccc1-3 | 0.46 (inactive) | 2.49
N#CC1=C2C=Cc3ccccc3N2CCCC1=O | 1.28 (inactive) | 6.9
Cc1ccc(C(=O)NNC(=O)c2ccc(SCC3CCCO3)c([N+](=O)[O-])c2)cc1 (stereo not given) | 0.56 (inactive) | 3.01
COC(=O)c1ccc(COc2cc(O)c3c(c2)OC(C)(C)CC3=O)cc1 | 1.03 (inactive) | 5.56
CCC(Oc1ccccc1)C(=O)Nc1nnc(C(F)(F)F)s1 (stereo not given) | 1.69 | 9.1
O=C(CCN1C(=O)/C(=C\c2ccccc2)SC1=S)NNC(=O)c1cccnc1 | 1.2 (inactive) | 6.49
